Source: patent US20100040568A1, “Steroidal compounds as melanogenesis modifiers and uses thereof” (SkinMedica, Inc., priority 2008, published 2010)
“Also recorded” adds a separate entry of the source.

Experiments:
[1] = tested on: African-American skin equivalent (MEL-B); assay: MelanoDerm pigmentation assay, African-American skin equivalent; type: cell-based, human
Experimental: (§1) MelanoDerm™, made by MatTek Corp., is a viable reconstituted three-dimensional human skin equivalent containing normal melanocytes and keratinocytes that are derived from African-American (MEL-B), Asian (MEL-A) or Caucasian (MEL-C) donors. Both MEL-A and MEL-B tissues were used in the current study, and they were maintained in the NMM-113 medium as recommended by the manufacturer.
Conessine (from Sigma) was dissolved in 30% ethanol: 70% propylene glycol to a final concentration of 1.0 mM (equal to 356.6 μg/ml), and this was maintained constant and used on all samples tested. A 25 μl of its aliquot was applied topically to the MelanoDerm™ tissue (MEL-B) on Days 0, 1, 3, 6, 8 and 10. The MelanoDerm™ tissues were fed every other day with 5 ml fresh NMM-113. Prior to each application, the tissues were washed with 1 ml PBS to remove any residual test compound. Tissues were fixed on Days 10 and 13 for microscopic analysis and histological evaluation. In addition, duplicate tissues were frozen on Days 10 and 13 for the melanin assay.
(§2) The experiments were repeated twice on both MEL-A and MEL-B tissues from different lots to make sure that the results are reproducible (study 1 or 2). For each experiment, six tissues were treated with conessine, and six were treated with […] (30% ethanol: 70% PEG) or arbutin if applicable. For MEL-B, on day 10, three tissues under each treatment condition were taken out, and one was used for histological studies and the other two were used for the melanin assay. The same protocol was followed with the MEL-B samples after 13 days' treatment and MEL-A after either 13 or 16 days' treatments.
(§3) Procedure 1: the effects of conessine on melanin synthesis in MEL-A or B were evaluated by light microscopy (views from the top surface of the tissue). Procedure 2: the distribution of melanin in the treated-MEL-A or B was accessed by image analysis using Fontana-Masson stained histological sections (views from the side of the tissue).
(§4) MelanoDerm™, made by MatTek Corp., is a viable reconstituted three-dimensional human skin equivalent containing normal melanocytes and keratinocytes that are derived from African-American (MEL-B), Asian (MEL-A) or Caucasian (MEL-C) donors. It has human skin-like structure and undergoes progressive tissue darkening over the course of 2-3 weeks. MelanoDerm™ provides a useful in vitro means for evaluation of agents that modulate pigmentation. Human skin equivalent models such as MelanoDerm™ provide an alternative to clinical and animal testing for evaluating the effects of putative bioactive compounds on mammalian pigmentation. MelanoDerm™ is considered a more physiologically relevant model than melanocytes alone or melanocyte-keratinocyte co-cultures. Both MEL-A and MEL-B tissues were used in the current study, and they were maintained in the NMM-113 medium as recommended by the manufacturer. In this model, substantial accumulation of newly synthesized melanin occurs over a two to three week period.
(§5) Conessine and Licorice extract were dissolved in 30% ethanol: 70% propylene glycol (PEG) to a final concentration of 0.036% (0.36 mg/ml). A 25 μl aliquot of each compound was applied topically to the Asian MelanoDerm™ tissue (MEL-A) on Days 0, 1, 3, 6, 8, 10 and 13. The MelanoDerm™ tissues were fed every other day with 5 ml fresh NMM-113. Prior to each application, the tissues were washed with 1 ml PBS to remove any residual test compound. Tissues were fixed on Days 13 and 16 for microscopic analysis and histological evaluation. In addition, duplicate tissues were frozen on Days 13 and 16 for melanin assay. 30% ethanol: 70% PEG was used as negative control. Cell viability was measured in accordance with the manufacturer's instructions using the MTT assay kit (MatTek Corp., Ashland, Mass. 01721). One MEL-A tissue from each condition was harvested on day 2 and 7, and MTT assay was performed. Similar experiments were performed on MEL-B.

[2] = tested on: Asian skin equivalent (MEL-A); assay: MelanoDerm pigmentation assay, Asian skin equivalent; type: cell-based, human
Source text: as §1
Tissues were taken out on Days 13 and 16 for the various assays. 30% ethanol: 70% propylene glycol was used as a negative control and the well-known pigmentation inhibitor, arbutin (at concentration of 3 mg/ml), was used as a positive control.
as §2, §3, §4, §5
Quantitative melanin assay was performed on the treated MEL-A tissues.

[3] = tested on: melan-a cells; assay: CellTiter 96 aqueous nonradioactive cell proliferation assay (cell viability); type: cell-based, murine; settings: concentrations below 20 μM
Experimental: The IC50 value for inhibition of cellular melanin synthesis for conessine was determined by culturing melan-a cells with various concentrations of conessine for 72 hours. Briefly, melan-a cells were plated at 5×10^4 cells per well in 1 ml of culture media in 24-well plates the day before adding conessine. Conessine was added at the indicated final concentrations. DMSO was used as a negative control. Cells were harvested after 72 hours of incubation, and spectrophotometric melanin assay was performed on cell pellets. The melanin contents were normalized to the total amount of protein. Cell viability was determined by using the CellTiter 96 aqueous nonradioactive cell proliferation assay.

[4] = tested on: Microphthalmia transcription factor (MITF); assay: Level of microphthalmia transcription factor in melan-a cells; type: cell-based, murine
Experimental: Melan-a cells were incubated with various concentrations of conessine for 72 hours. Cell lysates were prepared and separated by 7.5% sodium dodecyl sulfate-polyacrylamide gel and transferred to Immobilon-P membranes. Tyrosinase gene family proteins were detected with antibodies against each protein. […] Microphthalmia transcription factor (MITF) is a transcription factor that regulates the expression of tyrosinase gene family. […] Thus, increased levels of tyrosinase gene family proteins with conessine treatment are not due to increased MITF expression in melan-a cells.

[5] = tested on: Tyrosinase gene family proteins; assay: Immunoblot of tyrosinase gene family proteins in melan-a cells; type: cell-based, murine; settings: various concentrations, 72 hours
Experimental: Melan-a cells were incubated with various concentrations of conessine for 72 hours. Cell lysates were prepared and separated by 7.5% sodium dodecyl sulfate-polyacrylamide gel and transferred to Immobilon-P membranes. Tyrosinase gene family proteins were detected with antibodies against each protein.

[6] = 0.036% topical, day 13, 8 sections
[7] = arbutin 3 mg/ml, conessine and licorice 0.36 mg/ml, extract 1:50

`CC1C2CCC3C4CC=C5CC(N(C)C)CCC5(C)C4CCC32CN1C` (stereo not shown) [Compound 1, Conessine] was tested, and the “decrease of melanin content (Fontana-Masson staining, image analysis)” value ([1]; 1.0 mM topical, days 10 and 13, compared with control-treated) was 50-60%, the “colour by light microscopy” value ([1]; 0.036% topical) was “considerable decrease in the color of MEL-B” and the “decrease of melanin content (quantitative melanin assay)” value ([1]; 0.036% topical, 10 or 13 days) was “about 30%”. For the same compound, the “melanin content compared to the vehicle-treated tissues (Fontana-Masson sections, quantitative analysis)” value ([1]; 0.036% topical, day 10, 8 sections) was 73.61%, the “melanin content compared to the vehicle-treated tissues (Fontana-Masson sections, quantitative analysis)” value [1, 6] was 62.43% and the “effectiveness as depigmenting agent (comparison)” value [1, 7] was “more effective than either Licorice extract or arbutin”. The “melanin content by Fontana-Masson staining” value ([1]; conessine 0.36 mg/ml, extract diluted 1:50, 25 μl topical, days 10 and 13) was “decreases significantly”, the “decreased melanin content (quantitative melanin assay)” value ([2]; 0.036% topical, both 13 and 16 days, compared to vehicle-treated) was 30-40% and the “melanin content compared to the vehicle-treated tissues (Fontana-Masson sections, quantitative analysis)” value [2, 6] was 49.90%. The “melanin content compared to the vehicle-treated tissues (Fontana-Masson sections, quantitative analysis)” value ([2]; 0.036% topical, day 16, 8 sections) was 42.31%, the “effectiveness as depigmenting agent (comparison)” value [2, 7] was “more effective than either Licorice extract or arbutin” and the “pigmentation by light microscopy” value ([2]; conessine 0.036% (0.36 mg/ml), extract diluted 1:50, 25 μl topical, days 13 and 16) was “strikingly decreased; also recorded: becomes lighter”. The “melanin content by Fontana-Masson staining” value ([2]; conessine and licorice 0.36 mg/ml, extract diluted 1:50, 25 μl topical, days 13 and 16) was “significant decrease in the relative melanin content”, the cytotoxicity [3] was “did not exhibit cytotoxicity” and the “level of MITF” value [4] was “no notable effect”. The “cellular levels of tyrosinase family proteins” value [5] was “increases cellular levels of tyrosinase family proteins in a dose-dependent manner”.
